Reference: patent publication US20250263404A1, “AMINOPYRIDINES AS ACTIVATORS OF PI3 KINASE” (UCL Business Ltd, priority 2021, published 2025)

Columns and labels:
[1] = system: PI3Kα-WT and PI3Kα-KO MEFs; test: CellTiter-Glo ATP content in MEFs; format: cell-based, mouse
Protocol: A role for PI3Kα in activation of anabolic metabolism, cell cycle progression and cell proliferation is well-established.
MEFs were seeded at 5000 cells per well in 96-well plates in DMEM supplemented with 10% FBS and 1% P/S, and allowed to attach overnight. The next day, cells were serum starved for 4 h prior to compound treatment in fresh serum-free DMEM. Compounds solubilised in DMSO were diluted 1:2 in a 12-point concentration response curve in DMSO. Intermediate plates were prepared by transferring 4 μl of compounds in DMSO into 96 μl of serum-free DMEM media. This was then used to treat cell plates by transferring 12.5 μl of solution from the intermediate plate into 87.5 μl of serum-free DMEM in the cell plates. […] Cell plates were incubated for 24 h, 48 h or 72 h at 37° C., 5% CO2, followed by determination of cell survival using the CellTiter-Glo® reagent according to manufacturer's instructions (Promega #G7571). Endpoint luminescence was measured using CLARIOstar (BMG). Compound data were analyzed using GraphPad Prism 8.

[2] = biological target: PI3Kα (Homo sapiens, UniProt P42336); test: ADP-Glo in vitro lipid kinase assay, PI3Kα; format: biochemical; set-up: Full-length p110α was expressed in a complex with full-length p85α (for biochemistry and HDX-MS); 6xHis followed by TEV protease site (N); made in house; host or cells: Spodoptera frugiperda Sf9 (baculovirus co-infection; plasmids OP831 and OP809)
Chain of PI3Kα (P42336 whole entry, the tested form may be a part): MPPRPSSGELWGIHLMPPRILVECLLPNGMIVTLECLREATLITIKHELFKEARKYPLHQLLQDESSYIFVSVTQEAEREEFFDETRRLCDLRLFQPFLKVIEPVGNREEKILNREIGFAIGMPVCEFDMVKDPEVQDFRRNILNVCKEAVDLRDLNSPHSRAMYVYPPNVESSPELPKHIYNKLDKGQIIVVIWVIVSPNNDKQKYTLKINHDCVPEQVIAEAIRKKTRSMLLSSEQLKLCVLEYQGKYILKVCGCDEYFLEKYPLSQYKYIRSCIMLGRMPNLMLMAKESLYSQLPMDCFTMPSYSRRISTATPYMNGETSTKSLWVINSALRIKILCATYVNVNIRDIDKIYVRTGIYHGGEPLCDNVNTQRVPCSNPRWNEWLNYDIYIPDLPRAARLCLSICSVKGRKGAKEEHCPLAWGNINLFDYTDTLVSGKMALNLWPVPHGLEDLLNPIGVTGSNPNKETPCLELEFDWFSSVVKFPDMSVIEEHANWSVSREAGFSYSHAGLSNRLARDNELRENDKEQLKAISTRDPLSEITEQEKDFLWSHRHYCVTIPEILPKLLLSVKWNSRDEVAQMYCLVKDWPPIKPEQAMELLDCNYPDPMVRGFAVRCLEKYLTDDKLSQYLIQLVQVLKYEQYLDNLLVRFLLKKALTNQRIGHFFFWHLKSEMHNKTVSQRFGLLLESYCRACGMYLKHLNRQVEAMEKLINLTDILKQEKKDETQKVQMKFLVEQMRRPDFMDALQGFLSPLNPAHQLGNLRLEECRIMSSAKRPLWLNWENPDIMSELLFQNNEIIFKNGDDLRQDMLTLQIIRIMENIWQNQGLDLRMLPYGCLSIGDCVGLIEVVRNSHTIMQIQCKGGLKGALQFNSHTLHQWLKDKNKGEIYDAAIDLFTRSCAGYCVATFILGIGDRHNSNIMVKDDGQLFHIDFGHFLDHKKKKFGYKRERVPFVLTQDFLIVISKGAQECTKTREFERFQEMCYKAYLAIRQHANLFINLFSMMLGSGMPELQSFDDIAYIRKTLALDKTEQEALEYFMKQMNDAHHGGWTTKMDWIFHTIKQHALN
Chain of PI3Kα (P27986 whole entry partner, the tested form may be a part): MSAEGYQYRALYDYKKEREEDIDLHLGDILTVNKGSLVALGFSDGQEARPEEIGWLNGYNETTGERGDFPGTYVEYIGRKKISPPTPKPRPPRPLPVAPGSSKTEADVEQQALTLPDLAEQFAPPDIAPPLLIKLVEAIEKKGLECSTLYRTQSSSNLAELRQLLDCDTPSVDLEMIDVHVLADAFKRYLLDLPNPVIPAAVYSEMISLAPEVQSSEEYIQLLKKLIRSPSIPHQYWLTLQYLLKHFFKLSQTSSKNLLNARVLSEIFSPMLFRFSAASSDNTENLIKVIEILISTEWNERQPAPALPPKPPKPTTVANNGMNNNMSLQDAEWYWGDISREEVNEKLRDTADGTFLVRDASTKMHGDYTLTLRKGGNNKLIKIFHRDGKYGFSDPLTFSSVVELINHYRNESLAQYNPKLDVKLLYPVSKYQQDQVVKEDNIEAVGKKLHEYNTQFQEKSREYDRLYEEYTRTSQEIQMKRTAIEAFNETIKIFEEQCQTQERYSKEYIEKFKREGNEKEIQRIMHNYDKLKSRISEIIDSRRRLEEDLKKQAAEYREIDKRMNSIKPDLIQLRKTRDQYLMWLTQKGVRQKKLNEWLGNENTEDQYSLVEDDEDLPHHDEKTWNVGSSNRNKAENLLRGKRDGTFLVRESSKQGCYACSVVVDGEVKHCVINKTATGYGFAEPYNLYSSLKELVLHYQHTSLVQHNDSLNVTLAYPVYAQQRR
Protocol: The effect of 1938 on the in vitro lipid kinase activity of p85α in complex with p110α, p110β or p110δ (further referred to as PI3Kα, PI3Kβ and PI3Kδ) was tested. As a positive control, a bis-phosphorylated phosphopeptide (a PDGF-receptor-derived peptide phosphorylated on Tyr-740 and Tyr-751, hereafter referred to as pY peptide) was used to mimic engagement of the p85α SH2 domains with tyrosine-phosphorylated peptides in membrane-bound receptors and adaptor proteins, known to activate the PI3Kα complex.
Kinase reactions were performed with ADP-Glo kinase assay kit (Promega Corporation). The enzyme, substrate and compounds were diluted in reaction buffer (20 mM HEPES, 50 mM NaCl, 50 mM KCl, 3 mM MgCl2, 1 mM EGTA, 1 mM TCEP, pH 7.4). Final concentrations of PI3Kα and PI3Kδ used were 25 nM and 50 nM for PI3Kβ. Liposomes (5% brain PI(4,5)P2, 20% brain phosphatidylserine, 45% brain phosphatidylethanolamine, 15% brain phosphatidylcholine, 10% cholesterol, 5% sphingomyelin (Avanti Polar Lipids)) were used at a final concentration of 1 mg/ml.
For compound profiling, the reaction mixture contained 2 μl PI3K enzyme, 2 μl compound and/or pY and 2 μl of liposome substrate mixed with ATP. ATP was used at a final concentration of 500 μM for PI3Kα and PI3Kβ and at 200 μM for PI3Kδ, unless otherwise stated. The final DMSO concentration in the assay was 1%. The experiments were performed at room temperature for 3 h using 384 white-polystyrene plates (Corning #3824) before addition of 6 μl of ADP-Glo R1 to terminate the reaction. The plate was incubated for 45 min, followed by addition of 12 μl of ADP-Glo R2 and incubated further for 60 min in the dark. Luminescence was read using a Sense (Hidex) plate reader. […] All analyses were performed using GraphPad Prism 7.
For characterisation of the effects of 1938 on in vitro PI3K enzymology, all reactions were performed at room temperature with 384 white-polystyrene plates (Corning #3574). The final DMSO concentration in the assay was between 0.5%-1.8%. The reaction mixture contained 2 μl PI3K enzyme, 2 μl compound and/or pY and 2 μl of liposome substrate mixed with ATP. ATP was used at a final concentration of 200 μM, unless otherwise stated. The enzyme and compounds were pre-incubated for 10 min prior to addition of substrate. The reaction was allowed to proceed for 45 min at room temperature, before addition of 6 μl of ADP-Glo R1 to terminate the reaction. The plate was incubated for 60 min, followed by addition of 12 μl of ADP-Glo R2 and incubated further for 60 min in the dark. For enzyme kinetic calculations, data was expressed as velocity (pmol of ADP generated/sec). ADP-ATP standard curves were performed according to the manufacturer's instructions, and all analyses were performed using GraphPad Prism 8.

concentrations that decreased ATP levels (PI3Kα-independent effects) ([1]; 24 h incubation, PI3Kα-WT and PI3Kα-KO MEFs): > 7.5 µM
concentrations with non-PI3Kα-dependent effects ([1]; 48 h and 72 h incubation): ≥ 2 µM
PI3Kα activation in combination with a saturating concentration of pY ([2]; 1938 plus pY): synergistic PI3Kα activation
maximum rate of reaction (Vmax) of PI3Kα ([2]; ATP titration): increased
turnover number (Kcat) of PI3Kα ([2]; ATP titration): increased
effect on in vitro lipid kinase activity of PI3Kα ([2]; concentration-dependent): activate PI3Kα
EC50 ([2]; in vitro PI3Kα activation): 58 ± 28 µM
Max. activity relative to 1938 ([2]; relative to 1938): 100%
Max. activity relative to pY ctrl ([2]; relative to pY control): 397 ± 60%
Compound: CCN1CCN(c2ccc(Nc3cc(Nc4cccc5c4N(C(C)=O)CC5)ccn3)cc2)CC1 [Example 1938]
EC50 ([1]; Mus musculus, PI3Kα-WT MEFs, CellTiterGlo, read-out: EC50 of increase in metabolic activity (ATP content)): ~0.5 µM
